The values below come from patent US20080032924A1 (priority 2004, published 2008).

Entries after “also recorded” stand apart in the source; their conditions may differ. Where no end group is shown, it is not given here.

Assay [1] has as its system Leptosphaeria maculans spores. In kind it is cell-based.
The test system of assay [2] is Fusarium graminearum spores. In kind it is cell-based.
The next assay has as its system Micrococcus luteus. In kind it is cell-based.
The next assay relates to Aspergillus niger spores. In kind it is cell-based. Set-up: key: an N indicates that no activity was observed.
Assay [3] has as its system Colletotrichum gloeosporioides spores. In kind it is cell-based. On the set-up: key: an N indicates that no activity was observed.
In a further assay the test system is F. oxysporum mycelia. In kind it is cell-based, Fusarium oxysporum.
Another assay concerns F. graminearum mycelia. In kind it is cell-based, Fusarium graminearum.
In assay [4] the test system is Fusarium oxysporum spores. In kind it is cell-based.
The next assay concerns Escherichia coli. In kind it is cell-based.
Another assay relates to Ascochyta rabiei spores. In kind it is cell-based.
The next assay deals with Cryptococcus neoformans. Description: NCCLS M27-A2 microbroth dilution method. In kind it is cell-based. Conditions: synthetic peptide; C. neoformans; tested at 0.125-64 μg/ml. On the procedure:
(§1) Synthetic Gm-moricinA was also tested against six yeast species using the NCCLS M27-A2 microbroth dilution method at the Women's and Children's Hospital (Adelaide, Australia). The yeasts tested were Candida albicans, C. parapsilosis, C. glabrata, C. krusei, C. tropicalis and Cryptococcus neoformans. The peptide was tested at 0.125-64 μg/ml, with each yeast species tested in duplicate. Trays were read at 24, 48 or 72 hours as appropriate.
(Dilution methods test growth across graded concentrations, often in twofold steps.)

For a further assay, the system named is C. tropicalis. In words: NCCLS M27-A2 microbroth dilution method. Conditions: synthetic peptide, tested at 0.125-64 μg/ml. In kind it is cell-based. How it is done:
as §1

In the next assay the test system is C. parapsilosis. Description: NCCLS M27-A2 microbroth dilution method. In kind it is cell-based. Conditions: synthetic peptide, tested at 0.125-64 μg/ml. How it is done: as §1
The next assay has as its system C. glabrata. In words: NCCLS M27-A2 microbroth dilution method. In kind it is cell-based. Conditions: synthetic peptide, tested at 0.125-64 μg/ml. How it is done: as §1
In a further assay the test system is C. krusei. In words: NCCLS M27-A2 microbroth dilution method. In kind it is cell-based. Conditions: synthetic peptide, tested at 0.125-64 μg/ml. How it is done:
as §1

A further assay has as its system Candida albicans. Description: NCCLS M27-A2 microbroth dilution method. In kind it is cell-based. Conditions: synthetic peptide; C. albicans; tested at 0.125-64 μg/ml; read at 24, 48 or 72 hours. On the procedure: as §1

With “Bm-moricin: Synthetic B. mori moricin (residues 25 to 66 of SEQ ID NO:16) (AKIPIKAIKTVGKAVGKGLRAINIASTANDVFNFLKPKKRKH; listed as Bombyx mori) [reference compound]”, the “lowest concentration at which activity was observed in the zone inhibition assay, Lma” value in assay [1] came to 100 µM. Moreover, the “lowest concentration at which activity was observed in the zone inhibition assay, Fgr” value in assay [2] was determined as 10 µM. In addition, the “lowest concentration at which activity was observed in the zone inhibition assay, Mlu” value in the assay with Micrococcus luteus was found to be 10 µM. In addition, in the assay with Aspergillus niger spores, the “lowest concentration at which activity was observed in the zone inhibition assay, Ani” value is “N”. Moreover, the “lowest concentration at which activity was observed in the zone inhibition assay, Cgl” value in [3] is listed as “N”. For the same substance, in the assay on F. oxysporum mycelia, the “lowest concentration at which activity was observed in the zone inhibition assay, Fom” value is 100 µM. The “lowest concentration at which activity was observed in the zone inhibition assay, Fgm” value with F. graminearum mycelia came out at 180 µM. Moreover, in [4], the “lowest concentration at which activity was observed in the zone inhibition assay, Fox” value was 100 µM. The “lowest concentration at which activity was observed in the zone inhibition assay, Eco” value in the assay with Escherichia coli amounted to 10 µM. The “lowest concentration at which activity was observed in the zone inhibition assay, Ara” value in the assay on Ascochyta rabiei spores was 100 µM.
Turning to “Gm-moricinB: Antifungal moricin-like peptide from Galleria mellonella, SEQ ID NO:5 (GGQIIGKALRGINIASTAHDIISQFKPKKKKNH; listed as Galleria mellonella)”, the “lowest concentration at which activity was observed in the zone inhibition assay, Lma” value in [1] was found to be 100 µM. In addition, in assay [2], the “activity against F. graminearum” value is given as “showed activity” and the “lowest concentration at which activity was observed in the zone inhibition assay, Fgr” value was found to be 10 µM. In addition, the “lowest concentration at which activity was observed in the zone inhibition assay, Mlu” value with Micrococcus luteus was determined as 100 µM. In addition, the “lowest concentration at which activity was observed in the zone inhibition assay, Ani” value in the assay on Aspergillus niger spores is reported as “N”. The “lowest concentration at which activity was observed in the zone inhibition assay, Cgl” value in [3] was “N”. Besides, in the assay on F. oxysporum mycelia, the “lowest concentration at which activity was observed in the zone inhibition assay, Fom” value turned out to be 280 µM. Further, the “lowest concentration at which activity was observed in the zone inhibition assay, Fgm” value with F. graminearum mycelia came to 280 µM. Further, in [4], the “lowest concentration at which activity was observed in the zone inhibition assay, Fox” value amounted to 100 µM. Moreover, the “lowest concentration at which activity was observed in the zone inhibition assay, Eco” value in the assay on Escherichia coli came to 100 µM.
Consider “Gm-moricinC1: Antifungal moricin-like peptide purified from Galleria mellonella hemolymph, SEQ ID NO:48 (KVPIGAIKKGGKIIKKGLGVIGAAGTAHEVYSHVKNRH; listed as Galleria mellonella)”, for which the “activity against F. graminearum” value in assay [2] is recorded as “had activity”.
On to “Gm-moricinC2: Moricin-like peptide from Galleria mellonella, SEQ ID NO:53, synthesised (KVPIGAIKKGGKIIKKGLGVLGAAGTAHEVYNHVRNRQ; listed as Galleria mellonella)”, for which the “lowest concentration at which activity was observed in the zone inhibition assay, Lma” value in assay [1] stood at 10 µM. In [2], the “lowest concentration at which activity was observed in the zone inhibition assay, Fgr” value stood at 1 µM. Also, the “lowest concentration at which activity was observed in the zone inhibition assay, Mlu” value with Micrococcus luteus was determined as 100 µM. Moreover, the “lowest concentration at which activity was observed in the zone inhibition assay, Ani” value with Aspergillus niger spores is reported as “N”. Also, in the assay on F. oxysporum mycelia, the “lowest concentration at which activity was observed in the zone inhibition assay, Fom” value was 10 µM. The “lowest concentration at which activity was observed in the zone inhibition assay, Fgm” value with F. graminearum mycelia stood at 10 µM. In the assay on Escherichia coli, the “lowest concentration at which activity was observed in the zone inhibition assay, Eco” value is 10 µM.
For the substance “KVNVNAIKKGGKAIGKGFKVISAASTAHDVYEHIKNRRH [Gm-moricinA]”, the “activity against L. maculans” value in assay [1] is recorded as “showed activity”. Also, in assay [1], the “lowest concentration at which activity was observed in the zone inhibition assay, Lma” value stood at 10 µM. Moreover, the “activity against F. graminearum” value in [2] was “had activity; also recorded: showed activity”. Further, in assay [2], the “lowest concentration at which activity was observed in the zone inhibition assay, Fgr” value amounted to 1 µM. For the same substance, the MIC90 was determined as 4.0 µg/mL in the assay on Cryptococcus neoformans; 4.0 µg/mL with C. tropicalis; 4.0 µg/mL against C. parapsilosis; 64.0 µg/mL with C. glabrata; 8.0 µg/mL in the assay on C. krusei; 64.0 µg/mL against Candida albicans. Moreover, in the assay on Micrococcus luteus, the “lowest concentration at which activity was observed in the zone inhibition assay, Mlu” value came to 10 µM. Moreover, in the assay on Aspergillus niger spores, the “lowest concentration at which activity was observed in the zone inhibition assay, Ani” value is listed as “N”. The “lowest concentration at which activity was observed in the zone inhibition assay, Cgl” value in assay [3] is given as “N”. Further, the “lowest concentration at which activity was observed in the zone inhibition assay, Fom” value in the assay with F. oxysporum mycelia is 10 µM. Also, in the assay with F. graminearum mycelia, the “lowest concentration at which activity was observed in the zone inhibition assay, Fgm” value was found to be 100 µM. Besides, in assay [4], the “lowest concentration at which activity was observed in the zone inhibition assay, Fox” value worked out at 10 µM. Further, in the assay with Escherichia coli, the “lowest concentration at which activity was observed in the zone inhibition assay, Eco” value was found to be 10 µM. In the assay on Ascochyta rabiei spores, the “activity against A. rabiei” value is recorded as “showed activity”. For the same substance, in the assay on Ascochyta rabiei spores, the “lowest concentration at which activity was observed in the zone inhibition assay, Ara” value worked out at 1 µM.

In general, MIC90 refers to an inhibitory concentration at the 90% level, which refers to growth in some studies and to a panel of isolates in others.
